Test results as given in US12578273B2, “Ph-reversible leuco-BODIPY probe for in situ visualization of extracellular vesicles and their secretion from living cells” (The Chinese University of Hong Kong, priority 2021, dated 2026).

How the values were obtained:
Type in all cases: cell-based
HEK293 cells = assay: Cytotoxicity of the probe (alamarBlue cell viability); details: 2 μM, 0.1% DMSO, 12 h
Protocol: (§1) FIGS. 28A-28C Cytotoxicity of the probe. Pre-seeded in 96-well plates, HEK293, HeLa, and A549 cells were incubated in complete DMEM containing different concentrations of leuco-BODIPY [dissolved in dimethyl sulfoxide (DMSO)] for 12 h. The alamarBlue reagent (Invitrogen) was used to test cell viability by measuring the optical absorbance at 570 nm and 600 nm by a Multiskan GO UV-absorbance microplate reader. Reported data represent mean±SD from three independent experiments.
(§2) We studied the mechanism for the cellular uptake of our probe by a pharmacological approach.

A549 cells = assay: as above; details: 2 μM, 0.1% DMSO, 12 h
Protocol: as §1, §2

HeLa cells [1] = assay: as above; details: 2 μM, 0.1% DMSO, 12 h
Protocol: as §1, §2

HeLa cells [2] = assay: Effect of probe staining on the secretion of EVs (nanoparticle tracking analysis); details: 5 μM leuco-BODIPY, 3 h, NTA
Protocol: FIGS. 32A-32B Effect of probe staining on the secretion of EVs. HeLa cells were incubated with (FIG. 32A) complete DMEM or (FIG. 32B) DMEM containing 5 μM leuco-BODIPY for 3 h. After that, the EV sample was isolated from the cells for nanoparticle tracking analysis (NTA).
EV samples were diluted with filtered PBS (0.2 μm) to obtain an EV concentration of 10^8-10^9 particles/mL. For each sample, four 1-min videos were recorded when introduced about 1 mL of the conditioned medium to the NTA system (Malvern NanoSight NS500, Malvern, UK). The temperature was kept at about 18° C. Images in each video were analyzed with NTA 3.1 Build 3.1.45 software (Malvern). Auto settings were used for blur size and maximum jump distance. 2000 frames were examined per sample. […]
Moreover, we incubated the three cell types with our probe for 30 min, isolated the EVs secreted to the culture medium, centrifuged the collected medium to remove any dye-stained cell fragments, and confirmed the detection of fluorescence in the isolated EVs (Table 1). By contrast, for the EVs isolated from the same cell types under the same culture conditions but without treatment by our probe, the fluorescence detected was at the background level of blank culture medium.

[3] = system: A549 cells that express GFP-tagged CD81; assay: Confocal imaging of EVs or precursor EVs (colocalization of BODIPY with GFP-tagged CD81); details: 30 min
Protocol: (§3) Pre-seeded in 35-mm confocal dishes (SPL Life Sciences, Pocheon, South Korea), cells were grown to the desired confluence before transfection. The transfection medium, formulated in 1 mL of OptiMEM (Gibco, Waltham, MA), contains 7.5 μL of Lipofectamine 3000 (Invitrogen) and either 2.5 μg/mL GFP-CD81 or EGFP-tubulin-6 plasmids. After incubating the cells with the transfection medium for 4 h, the cells were switched to 2 mL of plasmid-free complete DMEM for 2 d. After that, the transfected cells were incubated with leuco-BODIPY for further confocal imaging.
(§4) Confocal imaging of EVs or precursor EVs To prepare the stock of the probe for our cell-based experiments, BODIPY was pre-dissolved in 100% DMSO (2 mM). After dissolution, the probe predominantly assumes the leuco-BODIPY form, as evidenced by its light-yellow color. Cells that express marker proteins of interest (i.e., GFP-tagged CD81 or EGFP-tagged tubulin-6) were pre-seeded in 35-mm confocal dishes. After removing the culture medium, the transfected cells were incubated with 1 mL of 2 μM leuco-BODIPY [dissolved in phenol red-free DMEM (Gibco) with […] (Invitrogen) for solubilization] for 30 min. The EVs in the medium or precursor EVs inside cells were imaged under a Leica SP8 confocal microscope with a 63× objective. The excitation wavelengths of the GFP-tagged proteins and BODIPY were 488 nm and 575 nm, respectively. The emission wavelengths of the GFP-tagged proteins and BODIPY were 495-525 nm and 585-710 nm, respectively. All images were taken at the same laser settings.
(§5) Then, we seeded HeLa, A549, or HEK293 cells that express GFP-tagged CD81 in a confocal dish and incubated the cells with phenol red-free medium containing 2 μM leuco-BODIPY and 0.1% DMSO for 30 min. Note that this probe is predominantly in its leuco-BODIPY form when dissolved in DMSO, as evidenced by its light-yellow color. We obtained confocal images of the cell-seeded medium without harvesting the EVs or rinsing the cells (FIGS. 2A, 30-31). Representative images of their extracellular space depict granular or spherical pockets of fluorescence from BODIPY (red) amidst a dark background. […] The fluorescent pockets of BODIPY are submicron-sized or micron-sized, larger than the reported sizes of exosomes (50-200 nm).^36 As the resolution limit of confocal microscopy may overestimate the size of EVs, we isolated EVs from the cell-seeded medium for nanoparticle tracking analysis (NTA; FIG. 2B). The hydrodynamic size distribution of the EVs lies between about 50 nm and about 400 nm, with peak EV diameters of 151 nm, 104 nm, and 156 nm for HeLa, A549, and HEK293 cells, respectively. As these peak EV sizes corroborate the typical sizes of exosomes, we conclude that the EVs detected are mostly exosomes, with a smaller portion of larger ectosomes, clustered exosomes, or extracellular MVBs (FIGS. 4A-4C).
(§6) Next, we attempted to use our probe for imaging intracellular precursor EVs before their secretion to the extracellular milieu. Again, we added leuco-BODIPY (dissolved in DMSO) to culture medium seeded with HeLa, A549, or HEK293 cells that express GFP-tagged CD81 for 30 min (FIG. 3). […] Contrarily, the overlap between BODIPY and GFP-CD81 fluorescence in the cytoplasm is moderate, characterized by Pearson's colocalization coefficients of 0.72, 0.66, and 0.63 for HeLa, A549, and HEK293 cells, respectively. As a negative control, we captured confocal images of the three cell lines but without adding leuco-BODIPY to the medium.

[4] = system: HEK293 cells that express GFP-tagged CD81; assay: as above; details: 30 min
Protocol: as §3, §4, §5, §6

[5] = system: HeLa cells that express GFP-tagged CD81; assay: as above; details: 30 min
Protocol: as §3, §4, §5, §6

[6] = extracellular space (CD81-enriched exosomes), 2 μM, no rinsing

Which results are given for `CCOC(=O)C(=Cc1ccc2n1[B-](F)(F)n1c(C=C(C(=O)OCC)C(=O)OCC)ccc1C2(OC)c1ccncc1)C(=O)OCC` [leuco-BODIPY]?
cell viability (HEK293 cells): did not severely reduce cell viability; cell viability (A549 cells): did not severely reduce cell viability; cell viability (HeLa cells [1]): did not severely reduce cell viability; effect on EV secretion (size distribution of EVs from dye-stained vs unstained cells) (HeLa cells [2]): limited effect; Pearson's colocalization coefficient between BODIPY and CD81-GFP fluorescence [3, 6]: 0.85; Pearson's colocalization coefficient between BODIPY and GFP-CD81 fluorescence ([3]; in the cytoplasm): 0.66; Pearson's colocalization coefficient between BODIPY and GFP-CD81 fluorescence ([3]; on the pseudopodia): 0.90; Pearson's colocalization coefficient between BODIPY and CD81-GFP fluorescence [4, 6]: 0.94; Pearson's colocalization coefficient between BODIPY and GFP-CD81 fluorescence ([4]; in the cytoplasm): 0.63; Pearson's colocalization coefficient between BODIPY and GFP-CD81 fluorescence ([4]; on the pseudopodia): 0.86; Pearson's colocalization coefficient between BODIPY and CD81-GFP fluorescence [5, 6]: 0.92; Pearson's colocalization coefficient between BODIPY and GFP-CD81 fluorescence ([5]; in the cytoplasm): 0.72; Pearson's colocalization coefficient between BODIPY and GFP-CD81 fluorescence ([5]; on the pseudopodia): 0.94
